From ChEMBL document CHEMBL1201862, “PubChem BioAssay data set” (2004) come the findings set out here.

Some test systems named below: PC-3; SW-620; TK-10; NCI-H460; SF-268; M14; SNB-19; HCT-15; T47D; OVCAR-8; SF-295; COLO 205; EKVX; SK-MEL-5; DU-145; OVCAR-4; HT-29; UACC-62; A498.
Assay in all cases: inhibition of tumour cell growth, NCI panel, 48 h

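All cell lines were grown in 96-well plates and treated with compound for 48 hours. The concentration for 50% growth inhibition is given as GI50.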 Activity calls are given as the source filed them. No stated cut-off is given here; in the data, active = GI50 up to about 1.1 µM and inactive = higher.

As to `O=c1c2ccccc2nc(Nc2cccc(Cl)c2)n1/N=C/C=C/c1ccccc1`, the GI50 was 33.7 µM (inactive) in the test on PC-3; 51.5 µM (inactive) with SW-620; > 100 µM (inactive) with TK-10; 48.2 µM (inactive) with NCI-H460; 53 µM (inactive) with SF-268; > 100 µM (inactive) with M14. For the same molecule, the GI50 is 47.2 µM (inactive) with SNB-19; more than 100 µM with HCT-15; 64.9 µM (inactive) in the test on T47D; 39.2 µM (inactive) in the test with OVCAR-8; 60 µM (inactive) with SF-295; > 100 µM (inactive) in the test on COLO 205. Also, the GI50 with EKVX was 80.7 µM (inactive); in the test on SK-MEL-5, 89.3 µM (inactive); in the test with DU-145, > 100 µM (inactive); in the test with OVCAR-4 it was 45.5 µM (inactive); in the test on HT-29, 61.9 µM (inactive); in the test with UACC-62, 41.3 µM (inactive).

Consider `N#Cc1c(Cl)c2ccccc2n2c1nc1ccccc12`, for which the GI50 in the test with PC-3 is 31 µM (inactive); in the test on SW-620, 29.1 µM (inactive); in the test with TK-10, 19.4 µM (inactive); with NCI-H460 it was 69.7 µM (inactive); with SF-268, 27.2 µM (inactive); in the test with M14, 19.6 µM (inactive). Moreover, the GI50 in the test on SNB-19 was 74.6 µM (inactive); in the test with HCT-15, 15.2 µM; with T47D, 27.2 µM (inactive); in the test with OVCAR-8, 21.9 µM (inactive); with SF-295 it was 59.7 µM (inactive); with COLO 205 it was 23.1 µM (inactive). For the same molecule, the GI50 in the test with EKVX is 19.9 µM (inactive); in the test with DU-145, 27.7 µM (inactive); in the test on A498, > 100 µM (inactive); in the test with OVCAR-4, 27.4 µM (inactive); in the test on HT-29, 20.3 µM (inactive); with UACC-62, 43.5 µM (inactive).

`O=C(O)C1(Cc2ccccc2)Cc2cc3c(cc2C1)CCC3`: the GI50 with PC-3 was > 100 µM (inactive); with SW-620, > 100 µM (inactive); in the test with TK-10, > 100 µM (inactive); in the test with NCI-H460, 86.9 µM (inactive); in the test on SF-268 it was 78.9 µM (inactive); in the test with M14, 44.1 µM (inactive). In addition, the GI50 in the test with SNB-19 was > 100 µM (inactive); in the test with HCT-15 it was 52.6 µM; with T47D, 18.3 µM (inactive); in the test with OVCAR-8, > 100 µM (inactive); with SF-295, > 100 µM (inactive); in the test on COLO 205, > 100 µM (inactive). Besides, the GI50 in the test with EKVX was 54.2 µM (inactive); with SK-MEL-5, > 100 µM (inactive); in the test on DU-145 it was > 100 µM (inactive); in the test with OVCAR-4, > 100 µM (inactive); with HT-29, > 100 µM (inactive); in the test on UACC-62, > 100 µM (inactive).

For `N#C/C(=C/NC(N)=S)C(N)=O`, the GI50 in the test on SW-620, in the test with TK-10, in the test on NCI-H460, in the test on SF-268, with M14 and in the test on SNB-19 was > 100 µM (inactive) each time. Also, the GI50 with HCT-15 was more than 100 µM; in the test with T47D, > 100 µM (inactive); in the test with OVCAR-8 it was > 100 µM (inactive); in the test on SF-295, > 100 µM (inactive); with COLO 205 it was > 100 µM (inactive); in the test with EKVX, > 100 µM (inactive). For the same molecule, the GI50 in the test with SK-MEL-5, in the test with DU-145, with A498, in the test on OVCAR-4 and with HT-29 was > 100 µM (inactive) in each case.

Take `CCOC(=O)/C(C#N)=C/c1coc2cc(C)cc(C)c2c1=O`: the GI50 with PC-3 was > 100 µM (inactive); with SW-620, > 100 µM (inactive); with TK-10 it was > 100 µM (inactive); with NCI-H460, > 100 µM (inactive); in the test on SF-268 it was 66.4 µM (inactive); in the test on M14, > 100 µM (inactive). The GI50 in the test on SNB-19 is > 100 µM (inactive); with HCT-15 it was more than 100 µM; with T47D it was > 100 µM (inactive); in the test with OVCAR-8 it was > 100 µM (inactive); in the test with SF-295 it was 91.6 µM (inactive); in the test on COLO 205, > 100 µM (inactive). Also, the GI50 in the test with EKVX, in the test on SK-MEL-5, in the test with DU-145, with A498, in the test on HT-29 and in the test with UACC-62 was > 100 µM (inactive) each time.

`C=CC1ON(C)CCc2cc(OC)c(OC)cc21` (stereo not given): the GI50 was > 100 µM (inactive) with PC-3; > 100 µM (inactive) in the test with SW-620; > 100 µM (inactive) with TK-10; > 100 µM (inactive) in the test with NCI-H460; 39.6 µM (inactive) in the test with SF-268; > 100 µM (inactive) in the test on M14. Also, the GI50 in the test with SNB-19 is > 100 µM (inactive); in the test with HCT-15, more than 100 µM; in the test with T47D, 83.2 µM (inactive); in the test with OVCAR-8, > 100 µM (inactive); with SF-295 it was > 100 µM (inactive); with COLO 205, > 100 µM (inactive). For the same molecule, the GI50 was > 100 µM (inactive) in the test with EKVX; > 100 µM (inactive) in the test on SK-MEL-5; > 100 µM (inactive) in the test with DU-145; > 100 µM (inactive) in the test on A498; > 100 µM (inactive) in the test with HT-29; 65.6 µM (inactive) in the test on UACC-62.

`O=c1[nH]c(=O)n(C2CC(O)C(CO)O2)cc1C1=NC1` (stereo not given): the GI50 in the test with SW-620, with TK-10, in the test with NCI-H460, with SF-268, in the test on M14 and in the test with SNB-19 was > 100 µM (inactive) throughout. For the same molecule, the GI50 with HCT-15 is more than 100 µM; in the test with T47D it was 35.2 µM (inactive); in the test on OVCAR-8, > 100 µM (inactive); in the test with SF-295, > 100 µM (inactive); with COLO 205 it was > 100 µM (inactive); in the test on EKVX it was > 100 µM (inactive). For the same molecule, the GI50 with SK-MEL-5, in the test with DU-145, in the test on A498, with OVCAR-4, in the test on HT-29 and in the test on UACC-62 was > 100 µM (inactive) in each case.

For `O=c1[nH]c2nc3ccccc3c(=O)n2/c1=C/c1ccccc1`, the GI50 in the test with PC-3 was 92 µM (inactive); with SW-620 it was 17.7 µM (inactive); with TK-10, 53.8 µM (inactive); in the test with SF-268, 20.6 µM (inactive); with M14 it was 47.9 µM (inactive); in the test with SNB-19, 19.6 µM (inactive). Moreover, the GI50 in the test on HCT-15 was 29.8 µM; in the test on T47D, 40.4 µM (inactive); in the test with OVCAR-8 it was 28 µM (inactive); in the test with SF-295, > 100 µM (inactive); in the test on COLO 205 it was 33.1 µM (inactive); with EKVX, 35.3 µM (inactive). For the same molecule, the GI50 in the test on SK-MEL-5 was 48.9 µM (inactive); with DU-145, 29 µM (inactive); in the test with OVCAR-4, > 100 µM (inactive); in the test on HT-29 it was 17.5 µM (inactive); with UACC-62, 28.6 µM (inactive).

As for `O=c1cc(N2CCNCC2)nc2ccccn12`, the GI50 in the test on PC-3, in the test with SW-620, with TK-10, in the test on SF-268, in the test with M14 and in the test with SNB-19 was > 100 µM (inactive) throughout. Besides, the GI50 with HCT-15 is more than 100 µM; in the test with T47D it was > 100 µM (inactive); with OVCAR-8 it was > 100 µM (inactive); with SF-295 it was > 100 µM (inactive); with COLO 205, > 100 µM (inactive); in the test on EKVX it was > 100 µM (inactive). For the same molecule, the GI50 with SK-MEL-5, in the test with DU-145, in the test with A498, with HT-29 and with UACC-62 was > 100 µM (inactive) in each case.

Take `Nc1ccc(Cc2c(N)[nH]c(=O)[nH]c2=O)cc1`: the GI50 with PC-3, in the test on SW-620, with NCI-H460, with SF-268, with M14 and in the test with SNB-19 was > 100 µM (inactive) throughout. For the same molecule, the GI50 was more than 100 µM in the test on HCT-15; > 100 µM (inactive) in the test on T47D; > 100 µM (inactive) in the test on OVCAR-8; > 100 µM (inactive) in the test on SF-295; > 100 µM (inactive) in the test on COLO 205; > 100 µM (inactive) in the test on SK-MEL-5. In addition, the GI50 is > 100 µM (inactive) in the test on DU-145; 47.3 µM (inactive) with A498; > 100 µM (inactive) with OVCAR-4; > 100 µM (inactive) with HT-29; > 100 µM (inactive) in the test with UACC-62.

On to `Cc1ccc(S(=O)(=O)OC2CCN(C)CC2)cc1`, for which the GI50 in the test with PC-3 is > 100 µM (inactive); in the test on SW-620, 20.1 µM (inactive); in the test on TK-10, > 100 µM (inactive); with NCI-H460, > 100 µM (inactive); in the test on SF-268, > 100 µM (inactive); in the test on M14, > 100 µM (inactive). Also, the GI50 was > 100 µM (inactive) in the test on SNB-19; more than 100 µM in the test on HCT-15; 23.1 µM (inactive) with T47D; > 100 µM (inactive) in the test on OVCAR-8; > 100 µM (inactive) in the test on SF-295; 21.7 µM (inactive) in the test on COLO 205. Further, the GI50 is > 100 µM (inactive) in the test with EKVX; 15.6 µM (inactive) with SK-MEL-5; > 100 µM (inactive) with DU-145; > 100 µM (inactive) in the test on OVCAR-4; > 100 µM (inactive) with HT-29; > 100 µM (inactive) with UACC-62.

With `COC(=O)NC1(NC(=O)OC)NC(=O)c2cc(OC)c(OC)cc2N1`, the GI50 with PC-3 is 26.1 µM (inactive); in the test with SW-620, 42.6 µM (inactive); in the test on TK-10 it was > 100 µM (inactive); with NCI-H460 it was 30.7 µM (inactive); in the test with SF-268, 78.7 µM (inactive); in the test with M14 it was 20.8 µM (inactive). Further, the GI50 in the test on SNB-19 is 55.5 µM (inactive); in the test with HCT-15, 13.2 µM; with T47D, 39.4 µM (inactive); with OVCAR-8, 65.6 µM (inactive); in the test on SF-295 it was 23.6 µM (inactive); in the test on COLO 205, 20.2 µM (inactive). Moreover, the GI50 in the test with EKVX was 89.3 µM (inactive); in the test with SK-MEL-5 it was 32.3 µM (inactive); in the test on DU-145, 48.6 µM (inactive); in the test on UACC-62, 30.1 µM (inactive).
